Experimental data as given in publication PMC9142922, “Galactosylated Prodrugs: A Strategy to Improve the Profile of Nonsteroidal Anti-Inflammatory Drugs” (Pharmaceuticals, 2022).
Values after ≈ are worked out from the molar mass of the structure shown. Like-named read-outs stand apart in the source and are kept apart here. Marks after values point to notes of the source that are not given here.

Legend:
[1] = Stability in human serum at 37 °C; conditions: for degradation in human serum in 24 h / Stability at 37 °C, % compound after 24 h of incubation, Human Serum: 37 °C; for half-life at 200 µM: male, human; for Stability at 37 °C, % compound after 24 h of incubation, Human Serum: unmodified incubated compound, 200 µM, mean ± SD
Description: A solution of each compound (10 mM in DMSO) was added to human serum (sterile-filtered from human male AB plasma, USA origin, sterile-filtered, Sigma-Aldrich) and preheated and maintained at 37 °C ± 0.5 °C. Three-hundred microliters of the resulting solutions (200 µM) was withdrawn at appropriate time intervals and added to 300 µL of CH3CN, which contained 0.1% TFA, in order to deproteinize the serum. […] Each clear supernatant was filtered using 0.45 µm PTFE filters (VWR International S.r.l., Milano, Italy) and analyzed via RP-HPLC as described below.
The reverse-phase HPLC procedure allowed the galactosylated prodrugs and their parent drugs to be separated and quantified. […] The analytical column was a ZORBAX Eclipse XDB-C8 (150 × 4.6 mm, 5 µm; Agilent, Santa Clara, CA, USA). The mobile phase consisted of 0.1% aqueous TFA and 0.1% TFA CH3CN 50/50 w/w% at a flow rate of 1.0 mL/min. The injection volume was 20 µL (Rheodyne, Cotati, CA, USA). The column effluent was monitored at 228 nm and 254 nm, referenced against an 800 nm wavelength. The quantitation of compounds was calculated using calibration curves and the linearity of the calibration curves was determined in a concentration range of 1–100 µM (r^2 > 0.99).

[2] = tested on: NSAID-induced gastric damage in mice; assay: Ulcerogenicity study (gastric lesion score); assay type: in vivo, CD1 mice; conditions: fasted mice, oral, parent 10 mg/kg or equimolecular prodrug, score 0 irritation, 1 lesions 1-2 mm, 2 lesions 2-3 mm, 3 lesions >3 mm; for Gastric Lesion Score (4 h): 4 h after treatment; for Gastric Lesion Score (48 h): 48 h after treatment
Description: NSAID-induced gastric damage in mice was evaluated following the procedure described by Chan et al.. […] The mucosa was then examined by means of a magnifying glass for the presence of irritation or frank hemorrhagic lesions (ulcers). Irritation was assigned a score of 0, and ulcerations were scored according to their length (a score of 1 for lesions with a length between 1 and 2 mm, a score of 2 for lesions with a length between 2 and 3 mm, a score of 3 for lesions greater than 3 mm). The sum of total scores was used for comparison.

[3] = Distribution coefficient n-octanol/PBS pH 7.4, shake-flask; assay type: physicochemical; conditions: room temperature, mean ± SD
Text: Lipophilicity is the key physicochemical parameter that influences solubility and various other aspects of the pharmacokinetic and pharmacodynamic profile of drugs. The hydrophilic-lipophilic behavior of galactosylated prodrugs and parent drugs was investigated by measuring the distribution coefficients (log D^pH) in n-octanol-phosphate buffered saline (PBS, pH 7.4) using the shake-flask technique.
Each log D value is an average of a minimum of six measurements.

[4] = Solubility assay at 25 °C (RP-HPLC); assay type: physicochemical; conditions: thermodynamic from solid
Description: The solubilities of the prodrugs and parent drugs were evaluated at 25 °C in water, simulated gastric fluid (SGF without pepsin, pH 1.2) and PBS (pH 7.4), which are the media used for chemical stability analyses. The solubilities were quantified using RP-HPLC.
Solubility was assessed in deionized water, SGF without pepsin (pH 1.2) and PBS (pH 7.4, 50 mM). The test solid compounds (5 mg) were added to 1 mL of water, PBS and SGF in glass tubes and shaken for 6 h at 25 °C. The suspensions were filtered through a PTFE 0.45 μm filter (VWR), and the resulting solutions were analyzed by means of RP-HPLC (see below). Experiments were performed in triplicate for each compound. Solubility is expressed as mM concentration.

[5] = Chemical stability in SGF (pH 1.2) and PBS (pH 7.4) at 37 °C; assay type: physicochemical; conditions: unmodified incubated compound, 100 µM, PBS pH 7.4, 37 °C, mean ± SD
Description: The concentrations of the galactosylated prodrugs and the parent drugs derived from the prodrugs were quantified using RP-HPLC (Table 2).
A 10 mM solution of each compound (the galactosylated prodrugs and their parent drugs) was added to either simulated gastric fluid (SGF-without pepsin) or phosphate-buffered saline (PBS, 50 mM). The SGF and PBS buffers were prepared as previously described.

[6] = Serum protein binding by ultrafiltration; assay type: in vitro ADME; conditions: male, human serum, 1 h at 37 °C, mean ± SD, read-out: Serum Protein Binding % Bound (converted)
Description: The serum protein binding properties of the galactosylated prodrugs and parent drugs were investigated using ultrafiltration. The compounds were incubated in human serum, and after 1 h, the concentrations of the compounds in the ultrafiltrate and the original serum were determined by means of RP-HPLC, and used to calculate the binding percentages, which are reported in Table 2.
Free- and protein-bound drug separation was obtained via ultrafiltration using commercially available membrane systems (Centrifree ultrafiltration devices with ultracel YM-T membrane, Merck, KGaA, Darmstadt, Germany). […] One milliliter of the solution was inserted into the sample reservoir of the ultrafiltration device and gently shaken in an orbital shaker for 1 h at 37 °C. […] The concentration of the compound both in the ultrafiltrate and filtrate was analyzed via RP-HPLC under the chromatographic conditions described above and using the calibration curves of standard solutions. […] The recovery of the ultrafiltration process was calculated to observe any possible compound loss during the operations in view of the limited solubility of the tested compounds.

[7] = Ex vivo permeation across excised rat small intestine (non-everted intestinal sac); assay type: in vitro ADME, male Wistar rats; conditions: compound filled into the sac, 5 mg/Kg in PBS + methocel 3%, 37 °C, 2 h; for Fraction Absorbed (Fa) ± SE, Duodenum: rat duodenum; for Fraction Absorbed (Fa) ± SE, Ileum: rat ileum; for Fraction Absorbed (Fa) ± SE, Jejunum: rat jejunum
Description: The permeability of the galactosylated prodrugs and the parent drugs through the rat small intestine was assessed ex vivo using the non-everted intestinal sac method. Despite some shortcomings (e.g., the interruption of normal blood flow, lack of a nervous system) this test is widely used to investigate the passive absorption of molecules and can provide further data when equipped with a mucus layer, which includes proteins of drug transport and metabolism.
A suspension of the tested compounds (5 mg/Kg in PBS + methocel 3%) was syringed into intestinal sacs that consisted of different segments of rat small intestine (duodenum, jejunum, ileum). The compound-enriched tissues were incubated at 37 °C for 2 h.
In order to verify the presence of the galactosylated compounds in the intestinal tissues, the intestinal sacs were opened at the end of the incubation period, washed with fresh buffer and homogenized in ethanol and the supernatant was dried. The concentrations of the galactosylated prodrugs and the prodrug-derived parent drugs were quantified using RP-HPLC (Figure 3a–d).
An evaluation of ex vivo absorption was carried out using permeation measurements in excised rat small intestines, as previously published, with some modifications. Briefly, male Wistar rats (200–250 g) were anesthetized with isoflurane, decapitated and exsanguinated. Freshly excised rat duodenum, jejunum and ileum tissue was washed with Krebs–Ringer buffer (KRB) and cut into pieces of 4–5 cm. Then, 0.2 mL of a suspension containing the compounds (5 mg/Kg, PBS + Methocel 3%) were syringed into intestinal sacs and the compound-enriched tissues were incubated in oxygenated KRB (10 mL) at 37 °C with smooth shaking. […] Tests were carried out in triplicate for each compound on three intestinal segments from three different rats. The concentration in the incubation buffer was quantified via RP-HPLC, as reported above.
At the end of the incubation period, the intestinal sacs were opened, washed with fresh buffer, homogenized in ethanol (1 mL, UltraTurrax) and centrifuged at 13,000× g for 5 min and the supernatant was dried with nitrogen. After resolubilization in 0.5 mL of methanol, the concentrations of the galactosylated prodrugs and prodrug-derived parent drugs were quantified using RP-HPLC.

[8] = aqueous buffer, PBS pH 7.4 50 mM, 25 °C, read-out: Solubility at 25 °C, PBS pH 7.4
[9] = simulated gastric fluid, SGF without pepsin pH 1.2, 25 °C, LOQ (HPLC) = 1 µM, read-out: Solubility at 25 °C, SGF pH 1.2
[10] = deionized water, 6 h shaking, 25 °C, mean, SD < 0.01, read-out: Solubility at 25 °C, Water

Row | Compound | degradation in human serum in 24 h [1] [%] | half-life at 200 µM [1] [h] | Stability at 37 °C, % compound after 24 h of incubation, Human Serum [1] [%] | Gastric Lesion Score (4 h) [2] | Gastric Lesion Score (48 h) [2] | logD [3] | solubility at 6 h [4, 8] [µM] | solubility at 6 h [4, 9] [µM] | solubility at 6 h [4, 10] [µM] | Stability at 37 °C, % compound after 24 h of incubation, PBS pH 7.4 [5] [%] | fraction unbound at 1 h, 100 µM [6] | Fraction Absorbed (Fa) ± SE, Duodenum [7] | Fraction Absorbed (Fa) ± SE, Ileum [7] | Fraction Absorbed (Fa) ± SE, Jejunum [7]
1 | CC(C(=O)OC[C@H]1OC(O)[C@H](O)[C@@H](O)[C@H]1O)c1ccc(-c2ccccc2)c(F)c1 (stereo partly shown) [FluGAL] | ~50 | ~24 | 57.3 ± 1.4 | 0 ** | 0.5 | 1.89 ± 0.09 | 1010 (≈ 410 µg/mL) | 1440 (≈ 585 µg/mL) | 5210 (≈ 2120 µg/mL) | 87.3 ± 2.1 | 0.039 | 0.060 ± 0.014 | 0.033 ± 0.008 | 0.031 ± 0.015
2 | CC(C)Cc1ccc(C(C)C(=O)OC[C@H]2OC(O)[C@H](O)[C@@H](O)[C@H]2O)cc1 (stereo partly shown) [IbuGAL] | ~50 | ~24 | 54.1 ± 2.2 | 0 ** | 1 | 1.73 ± 0.04 | 2930 (≈ 1080 µg/mL) | 2530 (≈ 932 µg/mL) | 1940 (≈ 715 µg/mL) | 81.2 ± 2.5 | 0.028 | 0.013 ± 0.006 | 0.031 ± 0.016 | 0.026 ± 0.014
